Source: US6352958B1, “Cycloimido-substituted benzofused heterocyclic herbicides” (FMC Corporation, priority 1997, dated 2002)

What was measured:
Type in all cases: in vivo
[1] = tested on: common chickweed (Stellaria media); assay: Postemergence herbicidal activity, chickweed; settings: rate of application 0.3 Kg/Ha, rated after 12-17 days
[2] = tested on: morningglory (Ipomea lacunosa or Ipomea hederacea); assay: Preemergence herbicidal activity, morningglory; settings: Rate of Application 0.3 Kg/Ha, examined after 12-17 days
[3] = tested on: Johnsongrass (Sorghum halepense); assay: Postemergence herbicidal activity, johnsongrass; settings: rate of application 0.3 Kg/Ha, rated after 12-17 days
[4] = tested on: common cocklebur (Xanthium strumarium L.); assay: Preemergence herbicidal activity, cocklebur; settings: Rate of Application 0.3 Kg/Ha, examined after 12-17 days
[5] = tested on: wheat (Triticum aestivum var. Lew); assay: Preemergence herbicidal activity, wheat; settings: Rate of Application 0.3 Kg/Ha, examined after 12-17 days
[6] = tested on: morningglory (Ipomea lacunosa or Ipomea hederacea); assay: Postemergence herbicidal activity, morningglory; settings: rate of application 0.3 Kg/Ha, rated after 12-17 days
[7] = tested on: velvetleaf (Abutilon theophrasti); assay: Preemergence herbicidal activity, velvetleaf; settings: Rate of Application 0.3 Kg/Ha, examined after 12-17 days
[8] = tested on: Johnsongrass (Sorghum halepense); assay: Preemergence herbicidal activity, johnsongrass; settings: Rate of Application 0.3 Kg/Ha, examined after 12-17 days
[9] = tested on: blackgrass (Aloepecurus myosuroides); assay: Preemergence herbicidal activity, blackgrass; settings: Rate of Application 0.3 Kg/Ha, examined after 12-17 days
[10] = tested on: green foxtail (Setaria viridis); assay: Preemergence herbicidal activity, green foxtail; settings: Rate of Application 0.3 Kg/Ha, examined after 12-17 days
[11] = tested on: common chickweed (Stellaria media); assay: Preemergence herbicidal activity, chickweed; settings: Rate of Application 0.3 Kg/Ha, examined after 12-17 days
[12] = tested on: wheat (Triticum aestivum var. Lew); assay: Postemergence herbicidal activity, wheat; settings: rate of application 0.3 Kg/Ha, rated after 12-17 days
[13] = tested on: field corn (Zea mays var. Pioneer 3732); assay: Preemergence herbicidal activity, corn; settings: Rate of Application 0.3 Kg/Ha, examined after 12-17 days
[14] = tested on: soybean (Glycine max var. Winchester); assay: Postemergence herbicidal activity, soybean; settings: rate of application 0.3 Kg/Ha, rated after 12-17 days
[15] = tested on: blackgrass (Aloepecurus myosuroides); assay: Postemergence herbicidal activity, blackgrass; settings: rate of application 0.3 Kg/Ha, rated after 12-17 days
[16] = tested on: soybean (Glycine max var. Winchester); assay: Preemergence herbicidal activity, soybean; settings: Rate of Application 0.3 Kg/Ha, examined after 12-17 days
[17] = tested on: velvetleaf (Abutilon theophrasti); assay: Postemergence herbicidal activity, velvetleaf; settings: rate of application 0.3 Kg/Ha, rated after 12-17 days
[18] = tested on: common cocklebur (Xanthium strumarium L.); assay: Postemergence herbicidal activity, cocklebur; settings: rate of application 0.3 Kg/Ha, rated after 12-17 days
[19] = tested on: field corn (Zea mays var. Pioneer 3732); assay: Postemergence herbicidal activity, corn; settings: rate of application 0.3 Kg/Ha, rated after 12-17 days
[20] = tested on: green foxtail (Setaria viridis); assay: Postemergence herbicidal activity, green foxtail; settings: rate of application 0.3 Kg/Ha, rated after 12-17 days

Cn1c(C(F)(F)F)cc(=O)n(-c2ccc(Cl)c3cc(-c4ccccc4)oc23)c1=O [Compound 264]
50%: Postemergence herbicidal activity (% control) SOY [14] | Postemergence herbicidal activity (% control) CRN [19]
30%: PREEMERGENCE HERBICIDAL ACTIVITY (% CONTROL) XANPE [4] | Postemergence herbicidal activity (% control) XANPE [18]
10%: PREEMERGENCE HERBICIDAL ACTIVITY (% CONTROL) SORHA [8] | PREEMERGENCE HERBICIDAL ACTIVITY (% CONTROL) SETVI [10] | PREEMERGENCE HERBICIDAL ACTIVITY (% CONTROL) CRN [13]
40%: Postemergence herbicidal activity (% control) IPOSS [6] | Postemergence herbicidal activity (% control) ABUTH [17]
0%: Postemergence herbicidal activity (% control) STEME [1] | PREEMERGENCE HERBICIDAL ACTIVITY (% CONTROL) IPOSS [2] | PREEMERGENCE HERBICIDAL ACTIVITY (% CONTROL) WHT [5] | PREEMERGENCE HERBICIDAL ACTIVITY (% CONTROL) ALOMY [9] | Postemergence herbicidal activity (% control) ALOMY [15] | PREEMERGENCE HERBICIDAL ACTIVITY (% CONTROL) SOY [16]
20%: Postemergence herbicidal activity (% control) SORHA [3] | PREEMERGENCE HERBICIDAL ACTIVITY (% CONTROL) ABUTH [7] | PREEMERGENCE HERBICIDAL ACTIVITY (% CONTROL) STEME [11] | Postemergence herbicidal activity (% control) WHT [12]

CC(OC(C)(C)C)c1cc2c(Cl)cc(F)c(-n3c(=O)cc(C(F)(F)F)n(C)c3=O)c2o1 (stereo not shown) [Compound 244]
80%: PREEMERGENCE HERBICIDAL ACTIVITY (% CONTROL) WHT [5]
60%: Postemergence herbicidal activity (% control) WHT [12]
90%: PREEMERGENCE HERBICIDAL ACTIVITY (% CONTROL) IPOSS [2] | Postemergence herbicidal activity (% control) CRN [19]
75%: Postemergence herbicidal activity (% control) ALOMY [15]
95%: Postemergence herbicidal activity (% control) SOY [14] | PREEMERGENCE HERBICIDAL ACTIVITY (% CONTROL) SOY [16]
100%: Postemergence herbicidal activity (% control) STEME [1] | PREEMERGENCE HERBICIDAL ACTIVITY (% CONTROL) XANPE [4] | Postemergence herbicidal activity (% control) SETVI [20] | Postemergence herbicidal activity (% control) IPOSS [6] | PREEMERGENCE HERBICIDAL ACTIVITY (% CONTROL) ABUTH [7] | PREEMERGENCE HERBICIDAL ACTIVITY (% CONTROL) SORHA [8] | PREEMERGENCE HERBICIDAL ACTIVITY (% CONTROL) SETVI [10] | PREEMERGENCE HERBICIDAL ACTIVITY (% CONTROL) CRN [13] | Postemergence herbicidal activity (% control) ABUTH [17] | Postemergence herbicidal activity (% control) XANPE [18]
70%: PREEMERGENCE HERBICIDAL ACTIVITY (% CONTROL) ALOMY [9] | PREEMERGENCE HERBICIDAL ACTIVITY (% CONTROL) STEME [11]

CC(C)C(=O)OC(C)c1cc2c(Cl)cc(F)c(-n3c(=O)cc(C(F)(F)F)n(C)c3=O)c2o1 (stereo not shown) [Compound 247]
90%: PREEMERGENCE HERBICIDAL ACTIVITY (% CONTROL) WHT [5] | PREEMERGENCE HERBICIDAL ACTIVITY (% CONTROL) CRN [13]
95%: PREEMERGENCE HERBICIDAL ACTIVITY (% CONTROL) STEME [11] | Postemergence herbicidal activity (% control) SOY [14]
85%: PREEMERGENCE HERBICIDAL ACTIVITY (% CONTROL) ALOMY [9]
100%: Postemergence herbicidal activity (% control) STEME [1] | PREEMERGENCE HERBICIDAL ACTIVITY (% CONTROL) IPOSS [2] | PREEMERGENCE HERBICIDAL ACTIVITY (% CONTROL) XANPE [4] | Postemergence herbicidal activity (% control) SETVI [20] | Postemergence herbicidal activity (% control) IPOSS [6] | PREEMERGENCE HERBICIDAL ACTIVITY (% CONTROL) ABUTH [7] | PREEMERGENCE HERBICIDAL ACTIVITY (% CONTROL) SORHA [8] | PREEMERGENCE HERBICIDAL ACTIVITY (% CONTROL) SETVI [10] | Postemergence herbicidal activity (% control) ALOMY [15] | PREEMERGENCE HERBICIDAL ACTIVITY (% CONTROL) SOY [16] | Postemergence herbicidal activity (% control) ABUTH [17] | Postemergence herbicidal activity (% control) XANPE [18] | Postemergence herbicidal activity (% control) CRN [19]
80%: Postemergence herbicidal activity (% control) WHT [12]

CC(C)c1cc2c(Cl)cc(F)c(-n3c(=O)cc(C(F)(F)F)n(C)c3=O)c2o1 [Compound 224]
70%: Postemergence herbicidal activity (% control) WHT [12]
90%: PREEMERGENCE HERBICIDAL ACTIVITY (% CONTROL) CRN [13] | Postemergence herbicidal activity (% control) ALOMY [15]
80%: PREEMERGENCE HERBICIDAL ACTIVITY (% CONTROL) WHT [5] | PREEMERGENCE HERBICIDAL ACTIVITY (% CONTROL) ALOMY [9]
95%: PREEMERGENCE HERBICIDAL ACTIVITY (% CONTROL) XANPE [4] | Postemergence herbicidal activity (% control) SOY [14]
100%: Postemergence herbicidal activity (% control) STEME [1] | PREEMERGENCE HERBICIDAL ACTIVITY (% CONTROL) IPOSS [2] | Postemergence herbicidal activity (% control) SETVI [20] | Postemergence herbicidal activity (% control) IPOSS [6] | PREEMERGENCE HERBICIDAL ACTIVITY (% CONTROL) ABUTH [7] | PREEMERGENCE HERBICIDAL ACTIVITY (% CONTROL) SORHA [8] | PREEMERGENCE HERBICIDAL ACTIVITY (% CONTROL) SETVI [10] | PREEMERGENCE HERBICIDAL ACTIVITY (% CONTROL) STEME [11] | PREEMERGENCE HERBICIDAL ACTIVITY (% CONTROL) SOY [16] | Postemergence herbicidal activity (% control) ABUTH [17] | Postemergence herbicidal activity (% control) XANPE [18] | Postemergence herbicidal activity (% control) CRN [19]
